Assay results published in patent US20250345492A1, “AN ANTIBACTERIAL POLYPEPTIDE COMPOUND, A MEDICAL DEVICE, HYDROGEL AND USE THEREOF” (priority 2020, published 2025).
≈ marks a conversion by molar mass, not a printed value. Square brackets hold non-standard residues; d marks the D form. Peptide text beside a SMILES is read from it. Dap = NC[C@H](N)C(=O)O

Legend:
C. parapsilosis ATCC2001 = conditions: ATCC2001
Source text: (§1) With respect to the determination of antibacterial activity and antifungal activity of the antibacterial polypeptide compounds, the bacterial strains employed included: E. coli (ATCC 25922), E. coli (ATCC 43837), Pseudomonas aeruginosa (ATCC 27853), Klebsiella pneumoniae (ATCC 700603), Cronobacter sakazakii (ATCC 29544), Staphylococcus aureus (ATCC 29213), Bacillus subtilis (ATCC 23857) and Staphylococcus epidermidis (ATCC 12228); and the fungal strains employed included Candida albicans (ATCC 14053), Candida glabrata (ATCC 2001), Candida parapsilosis (ATCC 22019), Candida tropicalis (ATCC 750) and Candida krusei (ATCC 6258), all of which were standard strains from American Type Culture Collection. In addition, drug-resistant strains S-1a, S-2a, S-3a, S-4a, E-1b, E-2b, E-3b, E-4b, E-5b, P-1c, P-2c, P-3c, P-4c, P-5c, and clinically isolated fungal strains Candida glabrata 2-1 and Candida albicans 14-1, 14-2 and 14-3 were employed, all which were clinically isolated.
(§2) Simply, a proper amount of the cryopreserved bacterium or fungus was added to fresh MH/SD medium, and cultured on a shaker overnight at 180 rpm at 37° C. The obtained cells were seeded again and cultured on a shaker for 4-5 hours to obtain cells in logarithmic phase. The resulting cells were added to a 96-well plate (1×10^5 CFU/ml, 100 μL/well), and then 100 μL of polypeptide with different concentrations (1-256 μM) twice the final concentrations was added to corresponding well according to the 2-fold serial dilution method. The fresh medium was used as a negative control, which was prepared in triplicate for each concentration. After dosing, the 96-well plate was placed in an incubator at constant 37° C. and humidity for 12 hours to observe the results. According to naked eye observations, the concentration of the compound in the first transparent well following the turbid wells was recorded as the MIC of the compound, namely, the MIC value of the compound to the bacterium or fungus.

[1] = test system: Staphylococcus aureus (ATCC 29213); conditions: ATCC 29213
Source text: as §1, §2

E. coli (ATCC 25922) = conditions: ATCC 25922
Source text: as §1, §2

C. tropicalis ATCC750 = conditions: ATCC750
Source text: as §1, §2

[2] = test system: Bacillus subtilis (ATCC 23857); conditions: ATCC 23857
Source text: as §1, §2

C. krusei ATCC6258 = conditions: ATCC6258
Source text: as §1, §2

C. glabrata ATCC22019 = conditions: ATCC22019
Source text: as §1, §2

[3] = test system: Pseudomonas aeruginosa (ATCC 27853); conditions: standard strain
Source text: as §1, §2

[4] = test system: Cronobacter sakazakii (ATCC 29544); conditions: ATCC 29544
Source text: as §1, §2

[5] = test system: Staphylococcus epidermidis (ATCC 12228); conditions: ATCC 12228
Source text: as §1, §2

C. albicans ATCC14053 = conditions: ATCC14053
Source text: as §1, §2

| Molecule | MIC C. parapsilosis ATCC2001 (C. parapsilosis ATCC2001) [µM] | MIC S. aureus ATCC29213 [1] [µM] | MIC C. coli ATCC25922 (E. coli (ATCC 25922)) [µM] | MIC C. tropicalis ATCC750 (C. tropicalis ATCC750) [µM] | MIC B. subtilis ATCC23857 [2] [µM] | MIC C. krusei ATCC6258 (C. krusei ATCC6258) [µM] | MIC C. glabrata ATCC22019 (C. glabrata ATCC22019) [µM] | MIC P. aerugmosa ATCC27853 [3] [µM] | MIC C. sakazakii ATCC29544 [4] [µM] | MIC S. epidermidis ATCC12228 [5] [µM] | MIC C. albicans ATCC14053 (C. albicans ATCC14053) [µM] |
| --- | --- | --- | --- | --- | --- | --- | --- | --- | --- | --- | --- |
| CC(C)C[C@H](NC(=O)[C@H](CCCCN)NC(=O)[C@H](CC(C)C)NC(=O)[C@H](CCCCN)NC(=O)[C@H](CC(C)C)NC(=O)[C@H](CCN)NC(=O)[C@H](Cc1ccccc1)NC(=O)[C@@H]1CCCN1)C(N)=O [Compound 3, Pro-Phe-Dab-Leu-Lys-Leu-Lys-Leu-NH2] (HELM PEPTIDE1{P.F.[Dab].L.K.L.K.L.[am]}$$$$V2.0) | 16 (≈ 15.3 µg/mL) | 128 (≈ 123 µg/mL) | 32 (≈ 30.6 µg/mL) | 32 (≈ 30.6 µg/mL) | 16 (≈ 15.3 µg/mL) | 64 (≈ 61.3 µg/mL) | 32 (≈ 30.6 µg/mL) | 32 (≈ 30.6 µg/mL) | 32 (≈ 30.6 µg/mL) | 16 (≈ 15.3 µg/mL) | 32 (≈ 30.6 µg/mL) |
| CC(C)C[C@H](NC(=O)[C@H](CCN)NC(=O)[C@H](CC(C)C)NC(=O)[C@H](CO)NC(=O)[C@H](CC(C)C)NC(=O)[C@H](CCN)NC(=O)[C@H](Cc1c[nH]c2ccccc12)NC(=O)[C@@H]1CCCN1)C(N)=O [Compound 10, Pro-Trp-Dab-Leu-Ser-Leu-Dab-Leu-NH2] (HELM PEPTIDE1{P.W.[Dab].L.S.L.[Dab].L.[am]}$$$$V2.0) | 16 (≈ 14.8 µg/mL) | 32 (≈ 29.7 µg/mL) | 16 (≈ 14.8 µg/mL) | 8 (≈ 7.42 µg/mL) | 16 (≈ 14.8 µg/mL) | 32 (≈ 29.7 µg/mL) | 16 (≈ 14.8 µg/mL) | 32 (≈ 29.7 µg/mL) | 8 (≈ 7.42 µg/mL) | 16 (≈ 14.8 µg/mL) | 32 (≈ 29.7 µg/mL) |
| CC(C)C[C@H](NC(=O)[C@H](CN)NC(=O)[C@H](CC(C)C)NC(=O)[C@H](CN)NC(=O)[C@H](CC(C)C)NC(=O)[C@H](CN)NC(=O)[C@H](Cc1c[nH]c2ccccc12)NC(=O)[C@@H]1CCCN1)C(N)=O [Compound 11, Pro-Trp-Dap-Leu-Dap-Leu-Dap-Leu-NH2] (H-PW[Dap]L[Dap]L[Dap]L-NH2) | 16 (≈ 14.4 µg/mL) | 32 (≈ 28.7 µg/mL) | 16 (≈ 14.4 µg/mL) | 16 (≈ 14.4 µg/mL) | 16 (≈ 14.4 µg/mL) | 32 (≈ 28.7 µg/mL) | 16 (≈ 14.4 µg/mL) | 64 (≈ 57.5 µg/mL) | 16 (≈ 14.4 µg/mL) | 16 (≈ 14.4 µg/mL) | 64 (≈ 57.5 µg/mL) |
| H-PFKLKLHL-NH2 [Compound 1] | 32 | 128 | 32 | 32 | 32 | 64 | 32 | 32 | 32 | 32 | 32 |
| H-PFRLRLHL-NH2 [Compound 5] | 16 | 128 | 16 | 32 | 16 | 64 | 16 | 32 | 32 | 32 | 16 |
